Data on 13 compounds can be found in ChEMBL document CHEMBL4420062, “Tfpi inhibitors and methods of use” (2013).

One may read the inhibition as how much of the control response was suppressed. By EC50 is commonly meant the concentration giving half of the maximal effect.

The structures appear in SMILES notation. The source made the active and inactive calls. No cut-off for these calls is given here. Where a SMILES comes first, the peptide text is derived from it. [ ]: non-standard residue; d: D form. Tle = CC(C)(C)[C@H](N)C(=O)O; Aib = CC(C)(N)C(=O)O

For one data set, the system named is Callithrix. Conditions: Plasma, 10 uM.
A short description of data set [1]: Stability in mouse plasma assessed as parent compound remaining after 24 hrs. Format: ADME, cell-free. Conditions: read-out: Stability.
The nature of data set [2]: Stability in human plasma assessed as parent compound remaining after 24 hrs. Format: ADME, cell-free. The following applies: read-out: Stability.
In data set [3] the target is T1, Tissue factor pathway inhibitor (Homo sapiens, UniProt P10646).
T1 sequence (P10646 whole entry): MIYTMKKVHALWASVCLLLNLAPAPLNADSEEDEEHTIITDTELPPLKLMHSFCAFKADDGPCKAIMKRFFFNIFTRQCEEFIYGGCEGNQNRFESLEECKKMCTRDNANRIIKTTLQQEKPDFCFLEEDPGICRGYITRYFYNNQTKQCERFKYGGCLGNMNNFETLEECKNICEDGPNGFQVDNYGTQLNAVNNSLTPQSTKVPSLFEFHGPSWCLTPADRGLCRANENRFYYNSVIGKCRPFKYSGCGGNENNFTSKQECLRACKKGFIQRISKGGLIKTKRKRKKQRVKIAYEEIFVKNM
Nature of the data set: Inhibition of TFPI in human plasma with induced factor-8 deficiency assessed as increase in thrombin generation by measuring FEIBA at 10 uM using thrombin-specific fluorogenic substrate Z-Gly-Gly-Arg-AMC by calibrated automated thrombography. Format: cell-free.

Data set [4] has as its target Tissue factor pathway inhibitor (Homo sapiens) (UniProt P10646). Description: Inhibition of TFPI in human plasma with induced factor-8 deficiency assessed as increase in thrombin generation by measuring FEIBA at 10 uM using thrombin-specific fluorogenic substrate Z-Gly-Gly-Arg-AMC by calibrated automated thrombography relative to inhibitory polyclonal anti-TFPI antibody. Format: cell-free.

`CSCC[C@@H]1NC(=O)[C@H](C)NC(=O)[C@@H](NC(=O)[C@H](Cc2cnc[nH]2)NC(=O)[C@H](Cc2c[nH]c3ccccc23)NC(=O)[C@H](CCCCN)NC(=O)[C@H](Cc2ccc(O)cc2)NC(=O)[C@H](Cc2ccc(O)cc2)NC(=O)[C@H](CO)NC(C)=O)CSSC[C@@H](C(=O)N[C@H](C(=O)N[C@@H](Cc2c[nH]c3ccccc23)C(=O)N[C@H](C(=O)N[C@@H](CCCCN)C(=O)N[C@@H](Cc2ccccc2)C(N)=O)C(C)C)C(C)C)NC(=O)[C@H]([C@@H](C)O)NC(=O)[C@H](CCSC)NC(=O)[C@H]([C@@H](C)O)NC(=O)CNC(=O)[C@@H](CCCCN)NC(=O)[C@H](CCSC)NC(=O)[C@H](CC(=O)O)NC(=O)[C@H](CCCNC(=N)N)NC1=O`: the inhibition result in the data set with Callithrix was “inactive”.
Take `CC(=O)N[C@@H](Cc1cccc2ccccc12)C(=O)N[C@@H](CCC(N)=O)C(=O)N[C@@H](CO)C(=O)N[C@@H](CCCCN)C(=O)N1CCC[C@@H]1C(=O)N[C@@H](CC(N)=O)C(=O)N[C@H](C(=O)N[C@@H](Cc1cnc[nH]1)C(=O)N[C@H](C(=O)N[C@@H](CC(=O)O)C(=O)NCC(=O)N[C@@H](Cc1ccc(O)cc1)C(=O)N[C@@H](Cc1ccccc1)C(=O)N[C@@H](CCC(=O)O)C(=O)N[C@@H](CCCNC(=N)N)C(=O)N[C@@H](CC(C)C)C(=O)NC(C)(C)C(=O)N[C@@H](C)C(=O)N[C@@H](CCCCN)C(=O)N[C@@H](CC(C)C)C(N)=O)C(C)C)C(C)C`: the remaining at 24 h in data set [1] turned out to be 0%; in data set [2] it was 19.3%.
The matching figures for `CC(=O)N[C@@H](Cc1ccccc1)C(=O)N[C@@H](CCC(N)=O)C(=O)N[C@@H](CO)C(=O)N[C@@H](CCCCN)C(=O)N1CCC[C@@H]1C(=O)N[C@@H](CC(N)=O)C(=O)N[C@H](C(=O)N[C@@H](Cc1c[nH]cn1)C(=O)N[C@H](C(=O)N[C@@H](CC(=O)O)C(=O)NCC(=O)N[C@@H](Cc1ccc(O)cc1)C(=O)N[C@@H](Cc1ccccc1)C(=O)N[C@@H](CCC(=O)O)C(=O)N[C@@H](CCCNC(=N)N)C(=O)N[C@@H](CC(C)C)C(=O)NC(C)(C)C(=O)N[C@@H](C)C(=O)N[C@@H](CCCCN)C(=O)N[C@@H](CC(C)C)C(N)=O)C1CCCCC1)C(C)C`: 5.4% and 27.6%.
Taken in the same sequence, the figures for `CCCC[C@H](NC(=O)C(C)(C)NC(=O)[C@H](CC(C)C)NC(=O)[C@H](CCCNC(=N)N)NC(=O)[C@H](CCC(=O)O)NC(=O)[C@H](Cc1ccccc1)NC(=O)[C@H](Cc1ccc(O)cc1)NC(=O)CNC(=O)[C@H](CC(=O)O)NC(=O)[C@@H](NC(=O)[C@H](Cc1cnc[nH]1)NC(=O)[C@@H](NC(=O)[C@H](CC(N)=O)NC(=O)[C@H]1CCCN1C(=O)[C@H](CCCCN)NC(=O)[C@H](CO)NC(=O)[C@H](CCC(N)=O)NC(=O)[C@H](Cc1ccccc1)NC(C)=O)C(C)C)C(C)(C)C)C(=O)N[C@@H](CCCCN)C(=O)N[C@@H](CC(C)C)C(N)=O` were 17% and 90.1%.
Turning to `CC(=O)N[C@@H](Cc1ccccc1)C(=O)N[C@@H](CCC(N)=O)C(=O)N[C@@H](CO)C(=O)N[C@@H](CCCCN)C(=O)N1CCC[C@@H]1C(=O)N[C@@H](CC(N)=O)C(=O)N[C@H](C(=O)N[C@@H](Cc1cnc[nH]1)C(=O)N[C@H](C(=O)N[C@@H](CC(=O)O)C(=O)N[C@H](C)C(=O)N[C@@H](Cc1ccc(O)cc1)C(=O)N[C@@H](Cc1ccccc1)C(=O)N[C@@H](CCC(=O)O)C(=O)N[C@@H](CCCNC(=N)N)C(=O)N[C@@H](CC(C)C)C(=O)NC(C)(C)C(=O)N[C@@H]1CSSCCNC(=O)[C@H](CC(C)C)NC(=O)[C@H](CCCCN)NC1=O)C(C)(C)C)C(C)C`, the remaining at 24 h in data set [1] was found to be 34.3%; in data set [2], 12.1%.
Turning to `CSCC[C@@H]1NC(=O)[C@H](C)NC(=O)[C@H](NC(=O)[C@H](Cc2cnc[nH]2)NC(=O)[C@H](Cc2c[nH]c3ccccc23)NC(=O)[C@H](CCCCN)NC(=O)[C@H](Cc2ccc(O)cc2)NC(=O)[C@H](Cc2cnc[nH]2)NC(=O)[C@H](CO)NC(C)=O)CSSC[C@@H](C(=O)N[C@H](C(=O)N[C@@H](Cc2c[nH]c3ccccc23)C(=O)N[C@H](C(=O)N[C@@H](CCCCN)C(=O)N[C@@H](Cc2ccccc2)C(N)=O)C(C)C)C(C)C)NC(=O)[C@H](CO)NC(=O)[C@H](CCSC)NC(=O)[C@H]([C@@H](C)O)NC(=O)CNC(=O)[C@H]([C@@H](C)O)NC(=O)[C@H](CCSC)NC(=O)[C@H](CC(=O)O)NC(=O)[C@H](CCCNC(=N)N)NC1=O`, the EC50 in data set [3] was determined as 4.8 nM. Also, the inhibition in data set [4] is 55.9%.
Turning to `CC(=O)N[C@@H](Cc1ccccc1)C(=O)N[C@@H](CCC(N)=O)C(=O)N[C@@H](CO)C(=O)N[C@@H](CCCCN)C(=O)N1CCC[C@@H]1C(=O)N[C@@H](CC(N)=O)C(=O)N[C@H](C(=O)N[C@@H](Cc1cnc[nH]1)C(=O)N[C@H](C(=O)N[C@@H](CC(=O)O)C(=O)NCC(=O)N[C@@H](Cc1ccc(O)cc1)C(=O)N[C@@H](Cc1ccccc1)C(=O)N[C@@H](CCC(=O)O)C(=O)N[C@@H](CCCNC(=N)N)C(=O)N[C@@H](CC(C)C)C(=O)NC(C)(C)C(=O)N[C@@H](C)C(=O)N[C@@H](CCCCN)C(=O)N[C@@H](CC(C)C)C(N)=O)C(C)(C)C)C(C)C` (Ac-FQSK[dP]NVH[Tle]DGYFERL[Aib]AKL-NH2), the remaining at 24 h in data set [1] came out at 42.6%; in data set [2] it was 81.9%.
Taken in the same sequence, the figures for `CC(=O)N[C@@H](Cc1ccccc1)C(=O)N[C@@H](CCC(N)=O)C(=O)N[C@@H](CO)C(=O)N[C@@H](CCCCN)C(=O)N1CCC[C@@H]1C(=O)N[C@@H](CC(N)=O)C(=O)N[C@H](C(=O)N[C@@H](Cc1cnc[nH]1)C(=O)N[C@H](C(=O)N[C@@H](CC(=O)O)C(=O)N[C@@H]1CSSCC[C@@H](C(=O)N[C@@H](CCCNC(=N)N)C(=O)N[C@@H](CC(C)C)C(=O)N[C@@H](C)C(=O)N[C@@H](C)C(=O)N[C@@H](CCCCN)C(=O)N[C@@H](CC(C)C)C(N)=O)NC(=O)[C@H](Cc2ccccc2)NC(=O)[C@H](Cc2ccc(O)cc2)NC1=O)C(C)(C)C)C(C)C` were 11.1% and 61.5%.
Taken in the same sequence, the figures for `CC(=O)N[C@@H](Cc1ccccc1)C(=O)N[C@@H](CCC(N)=O)C(=O)N[C@@H](CO)C(=O)N[C@@H](CCCCN)C(=O)N1CCC[C@@H]1C(=O)N[C@@H](CC(N)=O)C(=O)N[C@H](C(=O)N[C@@H](Cc1cnc[nH]1)C(=O)N[C@H](C(=O)N[C@@H](CC(=O)O)C(=O)NCC(=O)N[C@@H](Cc1ccc(O)cc1)C(=O)N[C@@H](Cc1ccccc1)C(=O)N[C@@H](CCC(=O)O)C(=O)N[C@@H](CCCNC(=N)N)C(=O)N[C@@H](CC(C)C)C(=O)NC(C)(C)C(=O)N[C@@H](CC(C)C)C(=O)N[C@@H](CCCCN)C(=O)N[C@@H](CC(C)C)C(N)=O)C(C)(C)C)C(C)C` were 13.7% and 78.7%.
On to `CC(=O)N[C@@H](Cc1ccccc1)C(=O)N[C@@H](CCC(N)=O)C(=O)N[C@@H](CO)C(=O)N[C@@H](CCCCN)C(=O)N1CCC[C@@H]1C(=O)N[C@@H](CC(N)=O)C(=O)N[C@H](C(=O)N[C@@H](Cc1cnc[nH]1)C(=O)N[C@H](C(=O)N1CCC[C@H]1C(=O)N[C@H](C)C(=O)N[C@@H](Cc1ccc(O)cc1)C(=O)N[C@@H](Cc1ccccc1)C(=O)N[C@@H](CCC(=O)O)C(=O)N[C@@H](CCCNC(=N)N)C(=O)N[C@@H](CC(C)C)C(=O)NC(C)(C)C(=O)N[C@@H](C)C(=O)N[C@@H](CCCCN)C(=O)N[C@@H](CC(C)C)C(N)=O)C(C)C)C(C)C`, for which the results for the remaining at 24 h in data set [1] and in data set [2] were 27.3% and 99.3%, respectively.
The matching figures for `CC(=O)N[C@@H](Cc1ccccc1)C(=O)N[C@@H](CCC(N)=O)C(=O)N[C@@H](CO)C(=O)N[C@@H](CCCCN)C(=O)N1CCC[C@@H]1C(=O)N[C@@H](CC(N)=O)C(=O)N[C@H](C(=O)N[C@@H](Cc1cnc[nH]1)C(=O)N[C@H](C(=O)N[C@@H](CC(=O)O)C(=O)NCC(=O)N[C@@H](Cc1ccc(O)cc1)C(=O)N[C@@H](Cc1csc2ccccc12)C(=O)N[C@@H](CCC(=O)O)C(=O)N[C@@H](CCCNC(=N)N)C(=O)N[C@@H](CC(C)C)C(=O)NC(C)(C)C(=O)N[C@@H](C)C(=O)N[C@@H](CCCCN)C(=O)N[C@@H](CC(C)C)C(N)=O)C(C)C)C(C)C`: 6.1% and 46.6%.
The matching figures for `CCCCCCCCCCCCCC(=O)NCCCOCCOCCOCCCNC(=O)CCNCCCC[C@H](NC(=O)[C@H](CC(C)C)NC(=O)[C@H](CCCCN)NC(=O)[C@H](C)NC(=O)C(C)(C)NC(=O)[C@H](CC(C)C)NC(=O)[C@H](CCCNC(=N)N)NC(=O)[C@H](CCC(=O)O)NC(=O)[C@H](Cc1ccccc1)NC(=O)[C@H](Cc1ccc(O)cc1)NC(=O)[C@@H](C)NC(=O)[C@H](CC(=O)O)NC(=O)[C@@H](NC(=O)[C@H](Cc1cnc[nH]1)NC(=O)[C@@H](NC(=O)[C@H](CSCNC(C)=O)NC(=O)[C@H]1CCCN1C(=O)[C@H](CCCCN)NC(=O)[C@H](CO)NC(=O)[C@H](CCC(N)=O)NC(=O)[C@H](Cc1ccccc1)NC(=O)CCCCC)C(C)C)C(C)(C)C)C(N)=O`: 67.5% and 96.5%.
Taken in the same sequence, the figures for `CC(=O)N[C@@H](Cc1ccccc1)C(=O)N[C@@H](CCC(N)=O)C(=O)N[C@@H](CO)C(=O)N[C@@H](CCCCN)C(=O)N1CCC[C@@H]1C(=O)N[C@@H](CC(N)=O)C(=O)N[C@H](C(=O)N[C@@H](Cc1ccc2ccccc2c1)C(=O)N[C@H](C(=O)N[C@@H](CC(=O)O)C(=O)N[C@H](C)C(=O)N[C@@H](Cc1ccc(O)cc1)C(=O)N[C@@H](Cc1ccccc1)C(=O)N[C@@H](CCC(=O)O)C(=O)N[C@@H](CCCNC(=N)N)C(=O)N[C@@H](CC(C)C)C(=O)NC(C)(C)C(=O)N[C@@H](C)C(=O)N[C@@H](CCCCN)C(=O)N[C@@H](CC(C)C)C(N)=O)C(C)(C)C)C(C)C` were 51.1% and 88.8%.
